Blank lines part the entries; values can stand above or below the compound they belong to. Calls of active or inactive are those of the source.
What was measured:
[1] = target: 72 kDa type IV collagenase (Homo sapiens, UniProt P08253); assay: Dose Response validation of uHTS RPN11 inhibitor hits using a MMP-2 Fluorescence assay.; assay type: functional
Prothrombin = Prothrombin (Bos taurus, UniProt P00735); assay: thrombin protease inhibitors – biochemical, fluorescence polarization, uHTS hits, dose response (AID 602369); assay type: functional
[2] = target: T1, Zinc finger protein mex-5 (Caenorhabditis elegans, UniProt Q9XUB2); assay: potency of MEX-5 RNA-binding blockers – biochemical, C. elegans, fluorescence polarization, dose response (AID 1960)
T1 sequence (Q9XUB2 whole entry): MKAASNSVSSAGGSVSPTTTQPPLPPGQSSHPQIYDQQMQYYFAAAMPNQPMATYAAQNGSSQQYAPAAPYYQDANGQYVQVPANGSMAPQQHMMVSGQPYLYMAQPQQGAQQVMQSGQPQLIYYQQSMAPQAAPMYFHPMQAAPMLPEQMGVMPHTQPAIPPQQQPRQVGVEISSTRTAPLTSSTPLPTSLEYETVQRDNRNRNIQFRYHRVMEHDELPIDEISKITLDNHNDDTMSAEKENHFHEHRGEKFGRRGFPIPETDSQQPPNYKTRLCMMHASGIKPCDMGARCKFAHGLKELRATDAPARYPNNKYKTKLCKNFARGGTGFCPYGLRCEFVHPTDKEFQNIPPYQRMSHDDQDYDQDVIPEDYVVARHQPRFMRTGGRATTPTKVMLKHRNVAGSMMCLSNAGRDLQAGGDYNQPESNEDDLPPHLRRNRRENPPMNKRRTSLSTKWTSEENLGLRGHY

[3] = target: 26S proteasome non-ATPase regulatory subunit 14 (Homo sapiens, UniProt O00487); assay: inhibition of proteasome subunit RPN11 – biochemical, fluorescence polarization, uHTS hits, confirmation (AID 602368); assay type: functional
[4] = target: T2, RNA-binding protein pos-1 (Caenorhabditis elegans, UniProt G5EF15); assay: disruptors of C. elegans POS-1 RNA interaction – biochemical, fluorescence polarization, dose response (AID 1964);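 also: purified POS-1 fused to maltose binding protein made in E. coli; potency of compounds blocking POS-1 binding to fluorescent RNA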
T2 sequence (G5EF15 whole entry): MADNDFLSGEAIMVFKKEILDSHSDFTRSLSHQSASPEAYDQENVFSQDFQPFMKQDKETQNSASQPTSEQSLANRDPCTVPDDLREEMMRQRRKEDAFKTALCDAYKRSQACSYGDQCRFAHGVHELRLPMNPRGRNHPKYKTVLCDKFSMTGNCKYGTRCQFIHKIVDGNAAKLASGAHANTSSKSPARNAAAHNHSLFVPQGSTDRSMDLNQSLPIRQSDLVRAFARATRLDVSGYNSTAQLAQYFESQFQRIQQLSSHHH

LIM domain kinase 1 = LIM domain kinase 1 (Homo sapiens, UniProt P53667); assay: Navigating the Kinome. Panel member name: LIMK1; assay type: functional
Sequence of LIM domain kinase 1 (P53667 whole entry, the tested form may be a part): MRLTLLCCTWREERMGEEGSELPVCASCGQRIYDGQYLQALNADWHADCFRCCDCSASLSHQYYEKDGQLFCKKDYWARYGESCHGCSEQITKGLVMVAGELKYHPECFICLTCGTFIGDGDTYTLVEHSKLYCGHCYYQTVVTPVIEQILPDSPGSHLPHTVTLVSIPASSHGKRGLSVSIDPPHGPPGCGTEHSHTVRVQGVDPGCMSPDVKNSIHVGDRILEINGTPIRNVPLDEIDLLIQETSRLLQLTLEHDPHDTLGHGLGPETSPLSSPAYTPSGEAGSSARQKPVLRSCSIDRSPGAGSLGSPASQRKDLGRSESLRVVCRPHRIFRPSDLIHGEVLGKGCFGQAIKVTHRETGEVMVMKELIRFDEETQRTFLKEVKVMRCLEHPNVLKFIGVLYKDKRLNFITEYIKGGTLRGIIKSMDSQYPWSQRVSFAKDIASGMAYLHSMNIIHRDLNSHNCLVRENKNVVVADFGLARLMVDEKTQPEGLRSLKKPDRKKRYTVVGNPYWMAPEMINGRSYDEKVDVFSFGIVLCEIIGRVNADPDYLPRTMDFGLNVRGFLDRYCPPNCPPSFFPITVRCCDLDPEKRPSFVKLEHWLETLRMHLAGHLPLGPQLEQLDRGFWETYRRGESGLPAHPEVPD

[5] = target: Cyclin-dependent kinase 5 (Homo sapiens, UniProt Q00535); assay type: functional;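 also: CDK5 measured as one member of a kinase profiling panel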
Sequence of Cyclin-dependent kinase 5 (Q00535 whole entry): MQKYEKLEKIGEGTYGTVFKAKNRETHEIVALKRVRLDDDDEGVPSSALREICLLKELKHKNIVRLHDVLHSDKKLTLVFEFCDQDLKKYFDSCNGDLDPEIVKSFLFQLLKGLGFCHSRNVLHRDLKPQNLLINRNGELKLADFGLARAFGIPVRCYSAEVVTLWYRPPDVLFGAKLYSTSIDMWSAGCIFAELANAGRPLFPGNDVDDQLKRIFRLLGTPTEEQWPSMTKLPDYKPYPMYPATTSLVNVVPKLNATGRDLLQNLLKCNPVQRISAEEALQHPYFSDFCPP

[6] = target: T3, Serine/threonine-protein kinase Chk1 (Homo sapiens, UniProt O14757); assay type: functional;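 also: measured as one member of a kinome-wide kinase profiling panel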
T3 sequence (O14757 whole entry): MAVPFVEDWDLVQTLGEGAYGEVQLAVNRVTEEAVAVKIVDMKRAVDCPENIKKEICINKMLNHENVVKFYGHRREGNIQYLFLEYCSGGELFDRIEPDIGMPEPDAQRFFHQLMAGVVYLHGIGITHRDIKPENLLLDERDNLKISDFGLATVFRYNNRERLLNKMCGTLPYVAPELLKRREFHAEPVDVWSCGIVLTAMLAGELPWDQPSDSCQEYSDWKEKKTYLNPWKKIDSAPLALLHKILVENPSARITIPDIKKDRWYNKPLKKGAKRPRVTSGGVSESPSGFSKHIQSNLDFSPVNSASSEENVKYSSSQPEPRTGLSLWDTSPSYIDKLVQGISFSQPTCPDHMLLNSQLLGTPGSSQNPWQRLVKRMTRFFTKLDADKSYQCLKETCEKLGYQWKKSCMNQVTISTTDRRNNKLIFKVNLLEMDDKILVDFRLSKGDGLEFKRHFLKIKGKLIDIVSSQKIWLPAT

[7] = target: Dual specificity protein kinase CLK4 (Homo sapiens, UniProt Q9HAZ1); assay type: functional
Sequence of Dual specificity protein kinase CLK4 (Q9HAZ1 whole entry): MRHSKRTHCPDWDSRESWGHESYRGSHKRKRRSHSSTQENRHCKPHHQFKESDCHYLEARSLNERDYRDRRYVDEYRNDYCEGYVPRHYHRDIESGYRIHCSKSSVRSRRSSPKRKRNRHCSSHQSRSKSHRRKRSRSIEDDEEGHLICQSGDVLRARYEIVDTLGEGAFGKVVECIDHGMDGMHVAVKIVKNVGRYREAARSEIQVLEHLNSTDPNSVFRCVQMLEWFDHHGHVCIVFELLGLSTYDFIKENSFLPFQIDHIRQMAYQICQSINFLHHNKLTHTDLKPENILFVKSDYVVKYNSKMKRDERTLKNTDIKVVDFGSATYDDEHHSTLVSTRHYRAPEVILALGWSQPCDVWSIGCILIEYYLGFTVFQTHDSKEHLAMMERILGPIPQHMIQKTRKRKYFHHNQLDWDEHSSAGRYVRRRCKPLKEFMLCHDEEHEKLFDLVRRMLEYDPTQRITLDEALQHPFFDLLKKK

[8] = target: cAMP-dependent protein kinase catalytic subunit alpha (Homo sapiens, UniProt P17612); assay type: functional
[9] = target: Mitogen-activated protein kinase kinase kinase kinase 4 (Homo sapiens, UniProt O95819); assay type: functional
Sequence of Mitogen-activated protein kinase kinase kinase kinase 4 (O95819 whole entry): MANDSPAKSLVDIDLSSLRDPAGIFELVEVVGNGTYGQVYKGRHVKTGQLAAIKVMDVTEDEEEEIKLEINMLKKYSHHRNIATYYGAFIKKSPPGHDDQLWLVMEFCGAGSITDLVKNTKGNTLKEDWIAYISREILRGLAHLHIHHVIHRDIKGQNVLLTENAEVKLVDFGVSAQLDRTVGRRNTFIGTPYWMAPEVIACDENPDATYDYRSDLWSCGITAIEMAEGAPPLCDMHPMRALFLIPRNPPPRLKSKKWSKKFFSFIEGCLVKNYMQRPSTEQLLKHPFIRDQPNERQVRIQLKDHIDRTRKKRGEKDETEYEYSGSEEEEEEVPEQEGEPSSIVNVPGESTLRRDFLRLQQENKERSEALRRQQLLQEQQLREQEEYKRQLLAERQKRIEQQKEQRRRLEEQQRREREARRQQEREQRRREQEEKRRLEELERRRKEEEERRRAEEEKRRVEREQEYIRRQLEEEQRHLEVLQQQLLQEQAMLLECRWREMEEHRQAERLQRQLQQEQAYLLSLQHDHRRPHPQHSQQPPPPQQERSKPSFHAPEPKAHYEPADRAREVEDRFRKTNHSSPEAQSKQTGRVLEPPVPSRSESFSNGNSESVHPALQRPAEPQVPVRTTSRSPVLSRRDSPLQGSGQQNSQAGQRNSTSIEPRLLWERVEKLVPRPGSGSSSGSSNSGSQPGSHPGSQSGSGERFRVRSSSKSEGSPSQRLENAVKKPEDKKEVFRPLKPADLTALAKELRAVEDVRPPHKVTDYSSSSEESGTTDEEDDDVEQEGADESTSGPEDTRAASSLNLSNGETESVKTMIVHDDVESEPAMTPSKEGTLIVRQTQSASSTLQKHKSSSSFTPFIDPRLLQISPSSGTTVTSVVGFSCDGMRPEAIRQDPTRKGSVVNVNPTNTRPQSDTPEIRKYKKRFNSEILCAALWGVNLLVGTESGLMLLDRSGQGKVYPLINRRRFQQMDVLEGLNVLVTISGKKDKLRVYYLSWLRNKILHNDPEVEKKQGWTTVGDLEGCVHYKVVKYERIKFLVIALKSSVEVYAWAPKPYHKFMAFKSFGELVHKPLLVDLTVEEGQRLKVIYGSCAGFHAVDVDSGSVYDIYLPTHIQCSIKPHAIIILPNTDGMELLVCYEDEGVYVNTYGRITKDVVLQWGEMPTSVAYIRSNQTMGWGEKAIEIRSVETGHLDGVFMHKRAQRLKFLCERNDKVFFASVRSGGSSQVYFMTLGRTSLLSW

[10] = target: MAP kinase-interacting serine/threonine-protein kinase 2 (Homo sapiens, UniProt Q9HBH9); assay type: functional
Sequence of MAP kinase-interacting serine/threonine-protein kinase 2 (Q9HBH9 whole entry): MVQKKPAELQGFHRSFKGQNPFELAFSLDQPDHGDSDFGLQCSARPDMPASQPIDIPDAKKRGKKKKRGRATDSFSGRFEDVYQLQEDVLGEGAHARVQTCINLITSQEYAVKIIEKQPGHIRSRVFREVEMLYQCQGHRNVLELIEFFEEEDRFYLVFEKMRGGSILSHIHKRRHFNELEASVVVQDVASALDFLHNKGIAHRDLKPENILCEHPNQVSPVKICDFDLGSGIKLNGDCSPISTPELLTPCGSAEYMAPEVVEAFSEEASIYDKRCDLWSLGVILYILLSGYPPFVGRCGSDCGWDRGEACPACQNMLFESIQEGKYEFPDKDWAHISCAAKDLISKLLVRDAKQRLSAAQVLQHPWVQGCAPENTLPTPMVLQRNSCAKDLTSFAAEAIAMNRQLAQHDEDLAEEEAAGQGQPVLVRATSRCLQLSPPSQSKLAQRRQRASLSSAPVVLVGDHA

[11] = target: Interleukin-1 receptor-associated kinase 4 (Homo sapiens, UniProt Q9NWZ3); assay type: functional
Sequence of Interleukin-1 receptor-associated kinase 4 (Q9NWZ3 whole entry): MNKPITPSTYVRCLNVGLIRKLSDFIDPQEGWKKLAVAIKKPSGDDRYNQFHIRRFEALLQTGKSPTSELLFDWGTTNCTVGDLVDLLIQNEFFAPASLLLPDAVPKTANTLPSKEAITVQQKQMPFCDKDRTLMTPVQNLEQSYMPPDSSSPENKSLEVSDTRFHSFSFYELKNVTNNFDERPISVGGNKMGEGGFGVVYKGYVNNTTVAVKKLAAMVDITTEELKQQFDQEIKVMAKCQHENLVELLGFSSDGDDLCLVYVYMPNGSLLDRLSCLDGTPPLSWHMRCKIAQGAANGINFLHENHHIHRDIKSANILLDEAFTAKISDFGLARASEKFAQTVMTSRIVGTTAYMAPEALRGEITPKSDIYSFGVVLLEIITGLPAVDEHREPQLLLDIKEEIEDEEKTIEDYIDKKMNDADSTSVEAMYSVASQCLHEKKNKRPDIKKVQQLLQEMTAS

[12] = target: Homeodomain-interacting protein kinase 2 (Homo sapiens, UniProt Q9H2X6); assay type: functional;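 also: measured within a kinome-wide kinase profiling panel, HIPK2 being one panel member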
[13] = target: Serine/threonine-protein kinase pim-1 (Homo sapiens, UniProt P11309); assay type: functional
Sequence of Serine/threonine-protein kinase pim-1 (P11309 whole entry): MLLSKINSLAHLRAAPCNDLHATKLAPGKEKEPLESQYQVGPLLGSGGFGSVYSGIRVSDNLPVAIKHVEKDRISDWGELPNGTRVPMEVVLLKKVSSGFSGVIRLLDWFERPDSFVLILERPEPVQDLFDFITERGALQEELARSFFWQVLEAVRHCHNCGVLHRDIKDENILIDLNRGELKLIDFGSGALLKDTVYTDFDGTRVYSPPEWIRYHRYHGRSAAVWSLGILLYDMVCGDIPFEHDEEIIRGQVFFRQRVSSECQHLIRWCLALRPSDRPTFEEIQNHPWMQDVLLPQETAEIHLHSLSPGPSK

[14] = target: Cell division cycle 7-related protein kinase (Homo sapiens, UniProt O00311); assay type: functional;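 also: value obtained from a kinome-wide kinase panel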
[15] = target: Glycogen synthase kinase-3 beta (Homo sapiens, UniProt P49841); assay type: functional;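 also: value comes from a broad kinome profiling panel, with GSK3B as the panel member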
Sequence of Glycogen synthase kinase-3 beta (P49841 whole entry): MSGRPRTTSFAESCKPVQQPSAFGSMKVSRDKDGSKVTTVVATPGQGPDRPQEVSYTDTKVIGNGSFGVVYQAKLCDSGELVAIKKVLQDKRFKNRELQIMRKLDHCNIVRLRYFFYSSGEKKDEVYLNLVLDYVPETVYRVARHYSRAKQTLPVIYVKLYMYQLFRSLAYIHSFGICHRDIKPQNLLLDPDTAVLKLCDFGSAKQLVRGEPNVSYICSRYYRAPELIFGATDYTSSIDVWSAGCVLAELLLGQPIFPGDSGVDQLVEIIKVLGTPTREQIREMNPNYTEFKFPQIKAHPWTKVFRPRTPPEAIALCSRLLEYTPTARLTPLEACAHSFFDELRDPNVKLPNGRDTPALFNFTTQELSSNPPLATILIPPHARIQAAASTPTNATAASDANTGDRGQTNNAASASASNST

Activin receptor type-1 = Activin receptor type-1 (Homo sapiens, UniProt Q04771); assay: Navigating the Kinome. Panel member name: ACVR1; assay type: functional
Sequence of Activin receptor type-1 (Q04771 whole entry): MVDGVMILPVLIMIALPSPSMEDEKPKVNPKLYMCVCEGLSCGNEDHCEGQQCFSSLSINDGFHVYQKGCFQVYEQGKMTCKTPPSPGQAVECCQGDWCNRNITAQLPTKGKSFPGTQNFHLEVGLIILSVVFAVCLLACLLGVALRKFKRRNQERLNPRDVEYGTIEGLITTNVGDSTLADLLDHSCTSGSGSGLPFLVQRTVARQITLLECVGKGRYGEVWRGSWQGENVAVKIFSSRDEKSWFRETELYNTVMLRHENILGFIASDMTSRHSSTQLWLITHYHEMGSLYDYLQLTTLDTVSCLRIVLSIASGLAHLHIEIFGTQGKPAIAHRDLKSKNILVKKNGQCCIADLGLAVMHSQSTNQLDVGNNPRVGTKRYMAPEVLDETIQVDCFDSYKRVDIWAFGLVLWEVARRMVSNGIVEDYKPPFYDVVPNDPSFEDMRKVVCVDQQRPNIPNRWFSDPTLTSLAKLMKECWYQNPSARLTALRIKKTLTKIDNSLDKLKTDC

IC50 [1]: > 100 µM (inactive)
IC50 (Prothrombin): 19.8 µM (active)
EC50 [2]: 27.4 µM (active)
IC50 [3]: 28.6 µM (active)
EC50 [4]: > 300 µM (not active)
SMILES: O=C(N/N=C/c1ccc(-c2ccc([N+](=O)[O-])cc2)o1)c1cccnc1

Ki (LIM domain kinase 1): 3.16 µM (active)
Ki [5]: 2.51 µM (active)
Ki [6]: 2.51 µM (active)
Ki [7]: 1.58 µM (active)
SMILES: O=[N+]([O-])c1ccc2[nH]c(-c3ccco3)nc2c1

Ki [8]: 0.0126 µM (active)
Ki [9]: 0.0158 µM (active)
Ki [10]: 0.0251 µM (active)
Ki [11]: 0.0158 µM (active)
Ki [12]: 0.316 µM (active)
Ki [13]: 1.26 µM (active)
Ki [14]: 0.02 µM (active)
Ki [7]: 0.00316 µM (active)
Ki [15]: 0.126 µM (active)
SMILES: CC(C)(Nc1nccc(-c2c[nH]c3ncccc23)n1)c1ccccc1

Ki (Activin receptor type-1): 1.26 µM (active)
Ki [7]: 2.51 µM (active)
SMILES: O=C(Nc1cccc(C(F)(F)F)n1)Nc1ccnc2cc(F)ccc12
